Measured values reported in patent publication US12502440B2, “Cross-linking compounds and methods of use thereof” (North Carolina State University, priority 2019, dated 2025).
“And” between values parts separate entries of the source, which are not always exact repeats. Equal values may be shown once.

Columns and labels:
[1] = target: T1, β-glucosidase from Agrobacterium sp. (Agrobacterium sp., UniProt P12614); experiment: Oligomerization of compound V with β-glucosidase; type: biochemical
T1 construct: purchased Megazyme
T1 sequence (P12614 1-459): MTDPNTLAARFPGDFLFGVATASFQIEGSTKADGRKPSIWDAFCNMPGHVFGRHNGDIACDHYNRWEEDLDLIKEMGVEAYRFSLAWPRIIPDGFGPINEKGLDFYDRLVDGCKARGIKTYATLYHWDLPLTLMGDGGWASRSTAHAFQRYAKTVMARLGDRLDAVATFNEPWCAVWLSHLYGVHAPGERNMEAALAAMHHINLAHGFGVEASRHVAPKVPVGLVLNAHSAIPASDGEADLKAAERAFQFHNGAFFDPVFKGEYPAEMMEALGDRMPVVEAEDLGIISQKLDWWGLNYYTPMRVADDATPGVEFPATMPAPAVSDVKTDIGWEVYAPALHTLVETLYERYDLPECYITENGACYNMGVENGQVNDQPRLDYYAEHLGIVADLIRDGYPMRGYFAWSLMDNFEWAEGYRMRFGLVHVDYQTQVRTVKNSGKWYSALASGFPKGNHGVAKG
Protocol: The oligomerization of compound V was examined by treatment with the enzyme-glucosidase. The reaction mixture contained 50 μM of compound V and 200 nM of β-glucosidase (250-fold ratio). The reaction mixture was only faintly blue but upon centrifugation after 5 h of incubation, a blue precipitate was obtained. According to the colors of samples (FIG. 13, panel A), the yield of precipitate is low by comparison with our previously reported enzyme-substrate pairs (see Example 1). Multiple additions of enzyme (4×0.20 μM of enzyme stock, every 2 h) and longer incubation times (10 h or 24 h) were also tested but no increase in solution intensity or precipitate was observed. For the samples after 300 min of incubation, the precipitates suspended in H2O were screened by optical microscopy (FIG. 13, panel B) and DLS (FIG. 13, panel C). The size of aggregates is between 100 and 1000 nm as measured by DLS, which is consistent with the images obtained by optical microscopy (˜1 μm).
Quantitation of the indigogenic compounds in the precipitate and supernatant was carried out by absorption spectroscopy and multicomponent analysis (MCA) (M. Taniguchi, et al., Photochem. Photobiol., 2018, 94, 277-289) (FIG. 13, panels D and E). MCA analysis is essential due to the overlaid spectra of indigo and coumarin at 362 nm, the peak wavelength for the coumarin. Spectral deconvolution relied on knowledge of the molar absorption coefficient at 362 nm of coumarin (εcou362=2.0×10^4 M^−1 cm^−1, measured in DMF) and indigo model compound F19 (see Example 1 where F-19 is compound 43) shown in Chart 2 (εind362=0.81×10^4 M^−1 cm^−1, measured in DMSO/H2O, v/v=2/1); and the molar absorption coefficient of F19 at 630 nm (εind630=2.6×10^4 M^−1 cm^−1, measured in DMSO/H2O, v/v=2/1). The residual upon MCA was smaller than any of the components, as required for accurate analysis (Y. Zhang, et al., Phytochem. Anal., 2018, 29, 205-216). In this manner, the precipitate is composed of 51.6 nmol of coumarin and 2.8 nmol of indigoid dye; the supernatant is composed of 11.1 nmol of coumarin and 0.3 nmol of indigoid dye.
Materials. DMF (HPLC grade) was purchased from Alfa Aesar. H2O (molecular biology grade) for buffer preparation was purchased from Millipore Sigma. Compound V (5.6 mg) was dissolved in DMF (26 μL) to prepare 100 mM stock solution. Pi buffer was prepared freshly at 10 mM, pH 7. The enzyme β-glucosidase from Agrobacterium sp. was purchased from MegaZyme and was dissolved in Pi buffer at 10 μM to prepare the stock solution.
To screen the oligomerization procedure of compound V, samples of Pi buffer (1859 μL), DMF (100 μL), […]-glucosidase stock (40 μL) and compound V stock (1 μL) were mixed in a 2-mL Eppendorf tube. The resulting mixed sample (2.0 mL) contains 50 μM of compound V as the substrate and 0.20 μM of β-glucosidase as the enzyme. Three identical samples were prepared for different assays. For a control sample, 40 μL of Pi buffer was added as a replacement for the β-glucosidase stock solution. The tubes were incubated at 37° C. for 5 h, and pictures of the tubes were captured at 0, 15, 30, 60, 120, 180 and 300 min. After 300 min, the tubes were centrifuged at 20,000×g for 10 min to isolate any precipitate from the supernatant. No precipitate formed in the control sample.
Three samples were treated differently for three assays: (1) for sample 1, the precipitate was dissolved in 100 μL of DMF for absorption screening; (2) for sample 2, the precipitate was suspended in 100 μL of H2O for microscopic imaging; and (3) for sample 3, the precipitate was suspended in 1000 μL of H2O for dynamic light scattering (DLS) assay. The supernatant of sample 1 was freeze-dried under high vacuum and afterwards dissolved in 100 μL of DMF for absorption screening. The absorption spectra of the precipitates and supernatants were employed for quantitation of indigo and coumarin. […]

[2] = test system: β-glucosidase from almonds; experiment: Indigogenic reaction with β-glucosidase from almonds; type: biochemical; conditions: as E1 but ε measured for 43 (footnote g)
[3] = target: T2, β-glucosidase from Agrobacterium plus rat liver homogenate (Agrobacterium sp., UniProt P12614); experiment: Reaction of 33 with β-glucosidase from Agrobacterium in rat liver homogenate; type: biochemical; conditions: 33 100 μM, enzyme 200 nM, rat liver homogenate with 2% DMF, 37° C., 4 h; ε measured for 43 (footnotes g,h)
T2 construct: purchased Megazyme
T2 sequence (P12614 1-459): T1 sequence (P12614 1-459)
Protocol: Reaction of 33 with β-glucosidase from Agrobacterium in rat liver homogenate. A DMF solution of 33 (2 μL, 5 mM) and β-glucosidase from Agrobacterium in 10 mM phosphate buffer [2 μL, 10 μM, pH 7.0, containing 50 mM NaCl and 0.6 M (NH4)2SO4] were mixed with rat liver homogenate (96 μL). The reaction mixture was incubated at 37° C. for 4 h and then centrifuged for 3 min. Any precipitate was separated from the supernatant and then suspended in DMF (200 μL). The suspension was centrifuged for 3 min. The supernatant was analyzed by absorption spectroscopy.

[4] = test system: rat liver homogenate; experiment: Indigoid-dye formation in rat liver homogenate; type: biochemical; conditions: as E7 but ε measured for 43 (footnote g)
Protocol: Finally, indigoid-dye formation was carried out in rat liver homogenate (Table 1, rightmost column).
Reactions in rat liver homogenate. An indoxyl compound in DMF (5 μL, 20 mM) was mixed with rat liver homogenate (95 μL). The reaction mixture was incubated at 37° C. for 24 h. After allowing to cool to room temperature, the reaction mixture was diluted with DMF (900 μL). The mixture was heated at 70° C. for 2 min and then centrifuged for 2 min. The supernatant was separated from any precipitate. This extraction procedure was repeated two or three times with DMF (100-500 μL). The combined supernatant (1500-1800 μL) was analyzed by absorption spectroscopy.

[5] = target: T3, β-glucosidase from Agrobacterium (Agrobacterium sp., UniProt P12614); experiment: Indigogenic reaction with β-glucosidase from Agrobacterium; type: biochemical; conditions: as E4 but ε measured for 43 (footnote g)
T3 construct: purchased Megazyme
T3 sequence (P12614 1-459): T1 sequence (P12614 1-459)
Protocol: Next, the β-glucosidase from Agrobacterium sp. was investigated as the trigger enzyme for indigoid dye formation. […] The reaction was carried out using the enzyme (200 nM) and indoxyl-glucoside 33 (100 μM) in phosphate buffer (pH 4-9, containing 2% DMF) at 37° C. […] Note that with 200 nM enzyme and 100 μM substrate, complete reaction requires 500 turnovers of each enzyme.
Reactions with β-glucosidase from Agrobacterium. An indoxyl compound in DMF (2 μL, 5 mM) and β-glucosidase from Agrobacterium in 10 mM phosphate buffer [2 μL, 10 μM, pH 7.0, containing 50 mM NaCl and 0.6 M (NH4)2SO4] were mixed with 50 mM phosphate buffer (96 μL, pH 7.0). The reaction mixture was incubated at 37° C. for 2 h and then centrifuged for 3 min. Any precipitate was separated from the supernatant and dissolved in DMF (200 μL). The resulting solution was analyzed by absorption spectroscopy. The experiment was repeated three times.

[6] = Solubility in aqueous buffer; type: physicochemical; conditions: 100 mM phosphate buffer (pH 7.4, containing 100 mM NaCl), room temperature
Source text: Water solubility of the indoxyl glucoside is important for biological applications. […] Therefore, this compound is not suitable for bioconjugation. The synthesis of 34 relies on successive substitution of the dichloroanilinotriazine unit (derived from N,N-bis(2-methoxyethyl)aniline^31 and cyanuric chloride) with indoxyl-glucoside-PEG-OH and BCN-PEG-NH2 building blocks.
To improve the water solubility of the indoxyl species, a sulfobetaine unit^32,33 was incorporated as a water-solubilizing group. Sulfobetaines are stable zwitterions over a wide range of pH. Synthesis of an indoxyl bearing a sulfobetaine unit is illustrated in Scheme 6. Boc-piperazine (35) was treated with 1,3-propane sultone to afford 36 in 63% yield. Quaternization of the tertiary nitrogen atom in 36 with 3-bromopropanol gave Boc-protected sulfobetaine 37 in 69% yield. The Boc group was cleaved with trifluoroacetic acid (TFA) to afford piperazine-TFA salt 38 in 97% yield. The N-acetyl group of 32 was selectively deprotected with NaHCO3/MeOH in 84% yield. The product 39, piperazine-TFA salt 38, and BCN-amine 14 were assembled at a triazine ring via one-flask, successive substitution of cyanuric chloride to afford 40 in 51% yield. Cleavage of the acetyl groups of sulfobetaine 40 provided 41 in 98% yield.

[7] = 50 μM compound V (100 nmol), 200 nM β-glucosidase, 37° C., 300 min, MCA
[8] = 50 μM compound V (100 nmol), 200 nM β-glucosidase, 37° C., 300 min, absorption spectroscopy with MCA

SMILES | total amount of coumarin calculated by MCA ([1]; 100 nmol compound V added) [nmol] | coumarin in the precipitate [1, 7] [nmol] | coumarin in the supernatant [1, 7] [nmol] | indigoid dye in the precipitate [1, 8] [nmol] | indigoid dye in the supernatant [1, 8] [nmol] | total quantity of indigoid dye ([1]; precipitate plus supernatant, 100 nmol compound V added) [nmol] | yield of indigoid dye ([1]; total indigoid dye, 100 nmol compound V added) [%] | Yield (%) of indigoid dye, β-glucosidase from almonds [2] | Yield (%) of indigoid dye, β-glucosidase from Agrobacterium plus rat liver homogenate [3] | Yield (%) of indigoid dye, rat liver homogenate [4] [%] | Yield (%) of indigoid dye, β-glucosidase from Agrobacterium [5] | solubility [6] [µM]
Cc1cc(=O)oc2cc(NCCNc3nc(NCCOCCOCCOCCOCCOCCN=[N+]=[N-])nc(OCCC[N+]4(CCCS(=O)(=O)[O-])CCN(c5nc(OCCOCCOCCOc6c(Br)cc7[nH]cc(O[C@@H]8O[C@H](CO)[C@@H](O)[C@H](O)[C@H]8O)c7c6Br)nc(OCCOCCOCCOc6c(Br)cc7[nH]cc(O[C@@H]8O[C@H](CO)[C@@H](O)[C@H](O)[C@H]8O)c7c6Br)n5)CC4)n3)ccc12 [Compound V, 2,4-Bis[1-(3-(β-D-glucopyranosyloxy)-4,6-dibromo-1H-indol-5-yl)-1,4,7,10-tetraoxadec-10-yl]-6-[4-(3-(2-(1-azido-3,6,9,12,15-pentaoxoheptadecylamino)-4-[2-((4-methyl-2H-chromen-2-one-7-yl)amino)ethylamino]-1,3,5-triazin-6-yloxy)propyl)-4-(3-sulfopropyl)piperazin-1-yl]-1,3,5-triazine] | 62.7 | 51.6 | 11.1 | 2.8 | 0.3 | 3.1 | 3.1 |  |  |  |  | 
OCCOCCOCCOc1c(Br)cc2[nH]cc(O[C@@H]3O[C@H](CO)[C@@H](O)[C@H](O)[C@H]3O)c2c1Br [compound 33, 4,6-Dibromo-5-[1-hydroxy-3,6,9-trioxanon-9-yl]-1H-indol-3-yl β-D-glucopyranoside] |  |  |  |  |  |  |  | 52% and 52^g % | 81% and 81 ± 5% | < 5 | 99% and 99 ± 5^g % | 
O=C(NCCOCCOCCNc1nc(OCCOCCOCCOc2c(Br)cc3[nH]cc(OC4O[C@H](CO)[C@@H](O)[C@H](O)[C@H]4O)c3c2Br)nc(N2CC[N+](CCCO)(CCCS(=O)(=O)[O-])CC2)n1)OC[C@@H]1[C@@H]2CCC#CCC[C@@H]21 (stereo partly shown) [compound 41] |  |  |  |  |  |  |  |  |  |  | 106% and 106 ± 4^g % | > 400
